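Each compound was tested at five concentrations against cells in 96-well plates for 48 hours. GI50 = concentration required for 50% inhibition of growth.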 The source made the active and inactive calls. No stated cut-off is given here; in the data, active = GI50 up to about 1.1 µM and inactive = higher.
Assays:
Experiment in all cases: NCI tumour cell line growth inhibition, 48 h
[1] = test system: DMS-114
[2] = test system: OVCAR-4
[3] = test system: LOX IMVI
[4] = test system: NCI-H226
[5] = test system: SNB-78
[6] = test system: SF-268
[7] = test system: K562
[8] = test system: CAKI-1
[9] = test system: SK-MEL-28
[10] = test system: SW-620
[11] = test system: KM-20L2
[12] = test system: A498
[13] = test system: SR
[14] = test system: SK-MEL-5
[15] = test system: MOLT-4
[16] = test system: KM12
[17] = test system: MCF7
[18] = test system: MDA-MB-231
[19] = test system: PC-3
[20] = test system: NCI/ADR-RES

For COc1cc(C=O)c(-c2c(C=O)ccc3c2OCO3)c(OC)c1OC, the GI50 [1] was > 100 µM (inactive), the GI50 [2] was > 100 µM (inactive) and the GI50 [3] was 54.6 µM (inactive). The GI50 [4] was > 100 µM (inactive), the GI50 [5] was > 100 µM (inactive) and the GI50 [6] was 89.3 µM (inactive). For the same compound, the GI50 [7] was 37.2 µM (inactive), the GI50 [8] was 31.9 µM (inactive) and the GI50 [9] was 74.6 µM (inactive). For the same compound, the GI50 [10] was 38.2 µM (inactive), the GI50 [11] was > 100 µM (inactive) and the GI50 [12] was > 100 µM (inactive). For the same compound, the GI50 [13] was 29.6 µM (inactive), the GI50 [14] was > 100 µM (inactive) and the GI50 [15] was 76.2 µM (inactive). The GI50 [16] was 78.3 µM (inactive).

With O=C(O/N=C1/CCC/C1=C\c1ccccc1)c1ccc(Cl)c(Cl)c1 the GI50 [1] was > 100 µM (inactive), the GI50 [2] was 35 µM (inactive) and the GI50 [3] was > 100 µM (inactive). For the same compound, the GI50 [4] was > 100 µM (inactive), the GI50 [5] was > 100 µM (inactive) and the GI50 [6] was > 100 µM (inactive). The GI50 [7] was > 100 µM (inactive), the GI50 [8] was > 100 µM (inactive) and the GI50 [9] was > 100 µM (inactive). For the same compound, the GI50 [10] was > 100 µM (inactive), the GI50 [11] was > 100 µM (inactive) and the GI50 [12] was > 100 µM (inactive). For the same compound, the GI50 [13] was > 100 µM (inactive), the GI50 [14] was > 100 µM (inactive) and the GI50 [15] was > 100 µM (inactive). The GI50 [16] was > 100 µM (inactive).

For COc1ccc(/C=C/C(=O)c2sc(-n3nc(-c4ccccc4)cc3-c3ccccc3)nc2C)cc1, the GI50 [1] was 31.3 µM (inactive), the GI50 [2] was 43.6 µM (inactive) and the GI50 [3] was > 10 µM (inactive). For the same compound, the GI50 [4] was > 10 µM (inactive), the GI50 [5] was > 10 µM (inactive) and the GI50 [6] was > 10 µM (inactive). For the same compound, the GI50 [7] was 52.2 µM (inactive), the GI50 [8] was 55.2 µM (inactive) and the GI50 [9] was > 10 µM (inactive). For the same compound, the GI50 [10] was > 10 µM (inactive), the GI50 [11] was 77.4 µM (inactive) and the GI50 [12] was > 10 µM (inactive). The GI50 [13] was > 10 µM (inactive), the GI50 [14] was 52.1 µM (inactive) and the GI50 [15] was 56.6 µM (inactive). The GI50 [16] was 76.4 µM (inactive).

With Cc1cc(Cl)ccc1NC(=O)CC/C(CC(=O)C(C)C)=N\NC(=O)C[n+]1ccccc1 the GI50 [1] was > 100 µM (inactive), the GI50 [2] was > 100 µM (inactive) and the GI50 [3] was > 100 µM (inactive). For the same compound, the GI50 [4] was > 100 µM (inactive), the GI50 [5] was > 100 µM (inactive) and the GI50 [6] was > 100 µM (inactive). For the same compound, the GI50 [7] was > 100 µM (inactive), the GI50 [8] was > 100 µM (inactive) and the GI50 [9] was > 100 µM (inactive). For the same compound, the GI50 [10] was > 100 µM (inactive), the GI50 [11] was > 100 µM (inactive) and the GI50 [12] was > 100 µM (inactive). For the same compound, the GI50 [13] was > 100 µM (inactive), the GI50 [14] was > 100 µM (inactive) and the GI50 [15] was > 100 µM (inactive). For the same compound, the GI50 [16] was > 100 µM (inactive).

OCC(O)CNc1ccnc2cc(Cl)ccc12 (stereo not given) was tested, and the GI50 [1] was > 100 µM (inactive), the GI50 [2] was > 100 µM (inactive) and the GI50 [3] was > 100 µM (inactive). The GI50 [4] was > 100 µM (inactive), the GI50 [5] was > 100 µM (inactive) and the GI50 [6] was > 100 µM (inactive). For the same compound, the GI50 [7] was > 100 µM (inactive), the GI50 [8] was > 100 µM (inactive) and the GI50 [9] was > 100 µM (inactive). For the same compound, the GI50 [10] was > 100 µM (inactive), the GI50 [11] was > 100 µM (inactive) and the GI50 [12] was > 100 µM (inactive). The GI50 [13] was > 100 µM (inactive), the GI50 [14] was > 100 µM (inactive) and the GI50 [15] was > 100 µM (inactive). The GI50 [16] was > 100 µM (inactive).

With O=c1cc(-c2ccccc2)oc2ccc(Cl)cc12 [6-CHLOROFLAVONE] the GI50 [1] was 49.9 µM (inactive), the GI50 [2] was > 44.3 µM (inactive) and the GI50 [3] was > 56.4 µM (inactive). For the same compound, the GI50 [17] was 20.7 µM (inactive), the GI50 [18] was 18.1 µM (inactive) and the GI50 [4] was > 84.7 µM (inactive). For the same compound, the GI50 [5] was 48.2 µM (inactive), the GI50 [6] was 31.8 µM (inactive) and the GI50 [7] was > 74.6 µM (inactive). The GI50 [8] was > 62.1 µM (inactive), the GI50 [9] was > 65.6 µM (inactive) and the GI50 [10] was > 92.7 µM (inactive). The GI50 [11] was > 100 µM (inactive), the GI50 [12] was > 68.5 µM (inactive) and the GI50 [19] was > 52.5 µM (inactive). The GI50 [20] was 57.4 µM (inactive), the GI50 [13] was 20.7 µM (inactive) and the GI50 [14] was > 100 µM (inactive). For the same compound, the GI50 [15] was > 74.6 µM (inactive) and the GI50 [16] was > 64.7 µM (inactive).

For CCc1ccc(NC(=O)NC(=O)c2ccccc2[N+](=O)[O-])cc1Oc1ncc(Cl)cn1, the GI50 [1] was 0.0174 µM (active), the GI50 [2] was 2.61 µM (inactive) and the GI50 [3] was 0.0189 µM (active). For the same compound, the GI50 [17] was < 0.01 µM (active), the GI50 [18] was 0.0376 µM (active) and the GI50 [4] was 0.0151 µM (active). The GI50 [5] was 0.0279 µM (active), the GI50 [6] was 0.0287 µM (active) and the GI50 [7] was < 0.0145 µM (active). For the same compound, the GI50 [8] was < 0.01 µM (active), the GI50 [9] was 0.37 µM (active) and the GI50 [10] was 0.0168 µM (active). For the same compound, the GI50 [11] was 0.0148 µM (active), the GI50 [12] was < 0.01 µM (active) and the GI50 [19] was < 0.01 µM (active). The GI50 [13] was 0.0247 µM (active), the GI50 [14] was < 0.0139 µM (active) and the GI50 [15] was 0.0247 µM (active). For the same compound, the GI50 [16] was < 0.0161 µM (active).

In the case of CCOC(=O)C(/N=N\c1ccc(S(N)(=O)=O)cc1)C(C)=O (stereo not given), the GI50 [1] is reported as > 100 µM (inactive), the GI50 [2] is reported as > 100 µM (inactive) and the GI50 [3] is reported as > 100 µM (inactive). For the same compound, the GI50 [4] was > 100 µM (inactive), the GI50 [5] was > 100 µM (inactive) and the GI50 [6] was > 100 µM (inactive). For the same compound, the GI50 [7] was > 100 µM (inactive), the GI50 [8] was > 100 µM (inactive) and the GI50 [9] was > 100 µM (inactive). For the same compound, the GI50 [10] was > 100 µM (inactive), the GI50 [11] was > 100 µM (inactive) and the GI50 [12] was > 100 µM (inactive). For the same compound, the GI50 [13] was > 100 µM (inactive), the GI50 [14] was > 100 µM (inactive) and the GI50 [15] was > 100 µM (inactive). The GI50 [16] was > 100 µM (inactive).

— ChEMBL document CHEMBL1201862, “PubChem BioAssay data set” (2004)
